According to PubChem BioAssay AID228 (DTP/NCI, 2004):
Records with an inconclusive call do not appear.

Test system: BDF1 mice, Friend leukemia sc, tumor weight T/C
Assay: NCI In Vivo Anticancer Drug Screen. Data for tumor model Friend Virus Leukemia (Solid) (subcutaneous) in B6D2F1 (BDF1) mice
Conditions: endpoint: mean tumor weight, vehicle: carboxymethylcellulose (CMC), higher = larger tumour
Method: The antitumor activity of compounds was measured in mice bearing transplantable tumors. Survival or tumor size were measured and the results are expressed as the measurement made in the treated group (T) divided by the measurement made in the vehicle treated control group (C). The tumor model used in this assay is Friend Virus Leukemia (Solid) (subcutaneous) in B6D2F1 (BDF1) mice

Which T/C (dose: 56.0 mg/kg/injection, schedule: Q01DX011 (ip)) does the source give for `Cc1cc2nc3c(=O)[nH]c(=O)nc-3n(CC(O)C(O)C(O)C(O)CO)c2cc1C` (centres undefined) here?
The T/C was 103 % of control.

And the T/C (dose: 113.0 mg/kg/injection, schedule: Q01DX011 (ip))?
Its T/C is 110 % of control.

Which T/C (dose: 0.12 mg/kg/injection, schedule: Q01DX011 (ip)) does the source give for `CC[C@]1(O)C[C@H]2CN(CCc3c([nH]c4ccccc34)[C@@](C(=O)OC)(c3cc4c(cc3OC)N(C)[C@H]3[C@@](O)(C(=O)OC)[C@H](OC(C)=O)[C@]5(CC)C=CCN6CC[C@]43[C@@H]65)C2)C1` here?
The T/C was 103 % of control.

And the T/C (dose: 0.24 mg/kg/injection, schedule: Q01DX011 (ip))?
The T/C was 53 % of control.

How did the T/C (dose: 2.0 mg/kg/injection, schedule: Q01DX011 (ip)) turn out when `CCC[CH2][Sn]([CH2]CCC)([CH2]CCC)[O]C(=O)CC[S][Sn]([CH2]CCC)([CH2]CCC)[CH2]CCC` was run?
The T/C was 108 % of control.

What about the T/C (dose: 4.0 mg/kg/injection, schedule: Q01DX011 (ip)) of the same molecule?
The T/C was 82 % of control.

How did the T/C (dose: 7.5 mg/kg/injection, schedule: Q#A X022 (ip)) turn out when `NC(=O)/C=C/C(=O)O` (tested in a mixture with another compound) was run?
The T/C was 78 % of control.

What about the T/C (dose: 15.5 mg/kg/injection, schedule: Q#A X022 (ip)) of the same molecule?
The T/C was 66 % of control.

Which T/C (dose: 0.05 mg/kg/injection, schedule: Q01DX011 (ip)) does the source give for `N#Cc1cn(C2OC(CO)C(O)C2O)c2ncnc(N)c12` (centres undefined) here?
Its T/C is 68 % of control.

And the T/C (dose: 0.1 mg/kg/injection, schedule: Q01DX011 (ip))?
The T/C was 72 % of control.

What about the T/C (dose: 0.15 mg/kg/injection, schedule: Q01DX011 (ip)) of the same molecule?
The T/C was 71 % of control.

Which results are given for `CC1=C2C(=C[C@@](C)(CO)[C@@H]2O)C(=O)[C@](C)(O)C12CC2`?
T/C (dose: 7.5 micrograms/kg/injection, schedule: Q01DX011 (ip)): 121 % of control; T/C (dose: 15.0 micrograms/kg/injection, schedule: Q01DX011 (ip)): 91 % of control; T/C (dose: 30.0 micrograms/kg/injection, schedule: Q01DX011 (ip)): 69 % of control
